Experimental data published in ChEMBL document CHEMBL2434925, “Synthesis and antiviral activity of a novel class of (5-oxazolyl)phenyl amines” (Eur J Med Chem, 2013).

Columns and labels:
Hepatitis C virus = assay: Antiviral activity against HCV expressing pFL-J6/JFH/JC1 infected in human Huh7.5 cells assessed as inhibition of viral RNA synthesis after 96 hrs by one-step RT-PCR analysis; type: functional, organism-based, Hepacivirus hominis; details: Huh-7, 96 h
Huh-7 = assay: Selectivity index, ratio of CC50 for human Huh7.5 cells to IC50 for HCV expressing pFL-J6/JFH/JC1; type: functional
[1] = Cytotoxicity against human Huh7.5 cells after 96 hrs by MTT assay; type: cell-based, Huh-7

In the case of `CCC[C@H](NC(=O)[C@@H]1[C@H]2CCC[C@H]2CN1C(=O)[C@@H](NC(=O)[C@@H](NC(=O)c1cnccn1)C1CCCCC1)C(C)(C)C)C(=O)C(=O)NC1CC1` [TELAPREVIR], the IC50 (Hepatitis C virus) is reported as less than 0.14 µM, the Ratio CC50/IC50 (Huh-7) is reported as greater than 268 and the CC50 at 96 h [1] is reported as 37.5 µM.
